Measurements taken from patent publication US20240101570A1 (AMGEN INC., priority 2020, published 2024).

Assays:
HCT116 MTAP null cells = test: HCT116 MTAP null cell proliferation / viability (CellTiter-Glo, 6 days); type: cell-based; details: HCT116-MTAP null, 144 h, HCT116 MTAP null cells, 6 days, CellTiter-Glo; read-out: HCT-116 MTAP null IC50
In short: (§1)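 CellTiter-Glo luminescence, 6-day exposure, RPMI 1640 + 10% FBS. Dosing: 1:3 series (8-9 pts, top 1 or 10 μM) or 1:2 series (22 pts, top 10 or 50 μM), DMSO control. IC50 = 50% of control via curve fit.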

HCT116 WT cells = test: HCT116 WT cell proliferation / viability (CellTiter-Glo, 6 days); type: cell-based; details: Homo sapiens, HCT-116, 144 h, HCT116 WT cells, 6 days, CellTiter-Glo; read-out: HCT-116 WT IC50
In short: as §1

| IC50 (HCT116 MTAP null cells) | IC50 (HCT116 WT cells) | SMILES |
| --- | --- | --- |
| 12 nM | 204 nM | C[C@H](c1ncccn1)N(Cc1ccc(C(F)(F)F)nn1)C(=O)c1ccc2nc(N)c3c(c2c1)COC3 [Example 441, 4-amino-N-((1R)-1-(2-pyrimidinyl)ethyl)-N-((6-(trifluoromethyl)-3-pyridazinyl)methyl)-1,3-dihydrofuro[3,4-c]quinoline-8-carboxamide] |
| 9 nM | 177 nM | C[C@H](c1ncccc1F)N(Cc1ccc(C(F)(F)F)nn1)C(=O)c1ccc2nc(N)c3c(c2c1)COC3 [Example 442, 4-amino-N-((1R)-1-(3-fluoro-2-pyridinyl)ethyl)-N-((6-(trifluoromethyl)-3-pyridazinyl)methyl)-1,3-dihydrofuro[3,4-c]quinoline-8-carboxamide] |
| 127 nM | 7210 nM | Nc1nc2ccc(C(=O)N(Cc3ccc(C(F)(F)F)cn3)C3CC3)cc2c2c1COC2 [Example 443, 4-amino-N-cyclopropyl-N-((5-(trifluoromethyl)-2-pyridinyl)methyl)-1,3-dihydrofuro[3,4-c]quinoline-8-carboxamide] |
| 13 nM | 343 nM | COCC(COC)N(Cc1ccc(C(F)(F)F)cn1)C(=O)c1ccc2nc(N)c3c(c2c1)COC3 [Example 444, 4-amino-N-(1,3-dimethoxy-2-propanyl)-N-((5-(trifluoromethyl)-2-pyridinyl)methyl)-1,3-dihydrofuro[3,4-c]quinoline-8-carboxamide] |
| 8 nM | 153 nM | COC[C@@H](C)N(Cc1ccc(C(F)(F)F)cn1)C(=O)c1ccc2nc(N)c3c(c2c1)COC3 [Example 445, 4-amino-N-((2R)-1-methoxy-2-propanyl)-N-((5-(trifluoromethyl)-2-pyridinyl)methyl)-1,3-dihydrofuro[3,4-c]quinoline-8-carboxamide] |
| 12 nM | 237 nM | COc1ccc(CN(C(=O)c2ccc3nc(N)c4c(c3c2)COC4)[C@H](C)c2ncccn2)nn1 [Example 446, 4-amino-N-((6-methoxy-3-pyridazinyl)methyl)-N-((1R)-1-(2-pyrimidinyl)ethyl)-1,3-dihydrofuro[3,4-c]quinoline-8-carboxamide] |
| 31 nM | 256 nM | Nc1nc2ccc(C(=O)N(Cc3ccc(C(F)(F)F)cn3)C3CCCn4ncnc43)cc2c2c1COC2 [Example 447, 4-amino-N-((8R)-5,6,7,8-tetrahydro[1,2,4]triazolo[1,5-alpyridin-8-yl)-N-((5-(trifluoromethyl)-2-pyridinyl)methyl)-1,3-dihydrofuro[3,4-c]quinoline-8-carboxamide and 4-amino-N-((8S)-5,6,7,8-tetrahydro[1,2,4]triazolo[1,5-a]pyridin-8-yl)-N-((5-(trifluoromethyl)-2-pyridinyl)methyl)-1,3-dihydrofuro[3,4-c]quinoline-8-carboxamide] |
| 159 nM | 11500 nM | CN(Cc1ccc(C(F)(F)F)cn1)C(=O)c1ccc2nc(N)c3c(c2c1)COC3 [Example 450, 4-amino-N-methyl-N-((5-(trifluoromethyl)-2-pyridinyl)methyl)-1,3-dihydrofuro[3,4-c]quinoline-8-carboxamide] |
| 32 nM | 4380 nM | CC(C)N(Cc1ccc(C(F)(F)F)cn1)C(=O)c1ccc2nc(N)c3c(c2c1)COC3 [Example 451, 4-amino-N-(2-propanyl)-N-((5-(trifluoromethyl)-2-pyridinyl)methyl)-1,3-dihydrofuro[3,4-c]quinoline-8-carboxamide] |
| 47 nM | 1570 nM | Nc1nc2ccc(C(=O)N(Cc3ccc(N4CCOCC4)nn3)CC3CC3)cc2c2c1COC2 [Example 452, 4-amino-N-(cyclopropylmethyl)-N-((6-(4-morpholinyl)-3-pyridazinyl)methyl)-1,3-dihydrofuro[3,4-c]quinoline-8-carboxamide] |
